Target: T1, Sal-like protein 4 (Homo sapiens, UniProt Q9UJQ4)
T1 sequence (Q9UJQ4 whole entry): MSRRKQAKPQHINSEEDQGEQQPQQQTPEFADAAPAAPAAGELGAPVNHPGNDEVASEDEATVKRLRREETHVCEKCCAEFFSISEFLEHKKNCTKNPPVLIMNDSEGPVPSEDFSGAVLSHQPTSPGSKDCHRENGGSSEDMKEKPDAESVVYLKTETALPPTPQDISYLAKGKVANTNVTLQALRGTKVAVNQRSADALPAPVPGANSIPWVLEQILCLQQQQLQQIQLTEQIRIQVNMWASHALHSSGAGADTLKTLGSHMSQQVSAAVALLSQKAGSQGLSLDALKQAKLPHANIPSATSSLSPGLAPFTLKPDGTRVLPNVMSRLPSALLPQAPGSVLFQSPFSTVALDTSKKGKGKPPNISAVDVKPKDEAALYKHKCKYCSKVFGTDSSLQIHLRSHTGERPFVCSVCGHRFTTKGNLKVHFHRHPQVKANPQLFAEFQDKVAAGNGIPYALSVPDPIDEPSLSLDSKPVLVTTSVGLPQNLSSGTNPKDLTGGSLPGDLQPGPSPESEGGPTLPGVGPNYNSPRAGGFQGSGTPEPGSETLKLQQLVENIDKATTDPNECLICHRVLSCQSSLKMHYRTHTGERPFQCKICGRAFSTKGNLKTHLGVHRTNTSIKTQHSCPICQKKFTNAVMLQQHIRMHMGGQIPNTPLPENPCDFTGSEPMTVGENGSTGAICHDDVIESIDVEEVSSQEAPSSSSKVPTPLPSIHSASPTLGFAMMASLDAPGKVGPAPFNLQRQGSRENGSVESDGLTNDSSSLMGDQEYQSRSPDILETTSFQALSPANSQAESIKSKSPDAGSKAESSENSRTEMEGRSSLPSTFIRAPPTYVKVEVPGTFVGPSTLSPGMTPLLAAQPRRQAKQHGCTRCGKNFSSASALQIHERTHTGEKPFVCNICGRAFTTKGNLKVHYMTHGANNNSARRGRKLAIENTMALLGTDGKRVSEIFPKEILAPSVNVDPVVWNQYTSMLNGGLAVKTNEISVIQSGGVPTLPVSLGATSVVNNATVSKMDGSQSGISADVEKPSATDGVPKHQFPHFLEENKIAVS
Assay: TBD: TBD

| Compound | IC50 |
| --- | --- |
| COc1ccc(Nc2c(-c3c(O)ccc4ccccc34)nc3cnccn23)cc1 | 619 nM |
| COC(=O)c1cccc(Nc2c(-c3c(O)ccc4ccccc34)nc3cnccn23)c1 | 623 nM |
| Oc1ccc2ccccc2c1-c1nc2ccccn2c1NC1CCCCC1 | 2770 nM |
| CC(C)(C)Nc1c(-c2c(O)ccc3ccccc23)nc2cnccn12 | 783 nM |
| Oc1ccc2ccccc2c1-c1nc2ccccn2c1NCc1ccccc1 | 1510 nM |
| Oc1ccc2ccccc2c1-c1nc2cnccn2c1NCCN1CCOCC1 | 1360 nM |
| Oc1ccc2ccccc2c1-c1nc2cnccn2c1NCc1ccccc1 | 594 nM |
| COc1ccc(CCNc2c(-c3c(O)ccc4ccccc34)nc3cnccn23)cc1OC | 2490 nM |
| Oc1ccc2ccccc2c1-c1nc2ccccn2c1NCCN1CCOCC1 | 2230 nM |
| Oc1ccc2ccccc2c1-c1nc2cnccn2c1NC1CCCCC1 | 616 nM |

The next compounds have a lower IC50 than those just listed; values first:

| IC50 | Compound |
| --- | --- |
| 162 nM | CC(C)(C)Nc1c(-c2c(O)ccc3ccccc23)nc2ccccn12 |
| 109 nM | Oc1ccc2ccccc2c1-c1nc2ccccn2c1NC1CC1 |
| 335 nM | Oc1ccc2ccccc2c1-c1nc2cnccn2c1NC1CC1 |
| 288 nM | COc1cccc(CNc2c(-c3c(O)ccc4ccccc34)nc3cnccn23)c1 |
| 434 nM | COCCNc1c(-c2c(O)ccc3ccccc23)nc2cnccn12 |
| 498 nM | N#Cc1ccc(Nc2c(-c3c(O)ccc4ccccc34)nc3cnccn23)cc1 |
